Entries after “also recorded” stand apart in the source; their conditions may differ.

The test system of series [1] is fetal calf serum-associated exonuclease. Put plainly: Nuclease resistance: 2 h incubation in cell culture medium with 10% fetal calf serum, HPLC of parent compound. Format: in vitro ADME. As to conditions: for % DEGRADATION MAJOR PEAK: 2 hours at 37° C., 6 or 7 μM, RPMI 1640 medium with 10% heat inactivated FCS; for % of oligomer remained after incubation: 2 hrs incubation with fetal calf serum-associated exonuclease; for AREA-MAJOR PEAK/2.0 HR: HPLC peak area of parent compound after 2.0 hr at 37° C. in RPMI 1640 with 10% FCS; for AREA-MAJOR PEAK/0.0 MIN: HPLC peak area of parent compound, 260 nm; for degradation / resistance to hydrolysis by FCS-associated exonucleases (in words): 2 hrs incubation, 10% FCS. Here is the method:
The oligonucleotides of Table 4 were dissolved in water. DNA concentrations were then determined by measuring the absorbance of samples at 260 nm (on a Perkin Elmer Lambda 4C Spectrophotometer at ambient room temperature) and using calculated extinction coefficients [method of Cantor and Warsaw, CRC Handbook of Biochemistry and Molecular Biology, 3rd. ed.
The FCS was heat inactivated at 56° C. for 0.5 hour prior to use. Samples were then placed on ice and deproteinized using five extractions with 24:1 chloroform:isoamyl alcohol. Samples were either stored frozen at -20° C. or immediately loaded onto a refrigerated (4° C.) WISP (Waters) HPLC autoinjector.
Oligonucleotide hydrolysis was guantitated by determining the amount of disappearance of the parent compound. Oligonucleotides (from the reaction mixture) were separated on an LKB Ultrachrome GTi dual pump chromatography system equipped with a fixed wavelength detector (260 nm), and recording integrator, using a GenPak FAX (Waters) anion exchange column eguilibrated in Buffer A (1 mM EDTA; 15 mM sodium phosphate, pH 8.5). Column temperature was maintained at 60° C. using a Waters column oven. Fifty microliter sample injection volumes were used. The oligonucleotides were eluted using a linear gradient of 0% to 100% Buffer B (Buffer A containing 0.5M NaCl) over 60 minutes. Buffer flow rate was 1 mL/min.

In a further series the test system is PHA stimulated human PBL. The experiment in a line: Progression of PHA stimulated PBL into the S-phase of the cell cycle (flow cytometry). As to conditions: PHA stimulation 48 hours, versus nontreated control. Format: cell-based. Here is the method:
Human PBL's were stimulated with PHA for 48 hours in the presence or absence of the antisense oligonucleotide sequences of Table 6. The percent of the population of cells in each treatment group in the S-phase of the cell cycle as compared to the nontreated control was determined using standard flow cytometric techniques.

In series [2] the test system is c-myc protein in MOLT-4 human T-cell leukemia cells. Put plainly: C-MYC protein expression in MOLT-4 cells (35S-methionine, radioimmunoprecipitation). As to conditions: 60 μM, 8 hours incubation. In kind it is cell-based. Here is the method: Asynchronous exponentially growing Molt-4 cells were incubated for 8 hours in the presence or absence of 60 μM c-myc directed antisense DNA. The cells were then incubated for 45 minutes in the presence of ^35 S-methionine and the content of c-myc protein guantitated using radioimmunoprecipitation with a c-myc antibody.

On to “5' XX GGA GCT GGT GGC GTA XX (A) 3' (antisense GGAGCTGGTGGCGTA; two triethylene glycol units at each end, extra 3' A, further chemistry not given here) [Ref. Code 8, TEG-terminated anti-RAS oncogene DNA, X is TEG]”, for which, in series [1], the “% DEGRADATION MAJOR PEAK” value turned out to be 17.9%, the “% of oligomer remained after incubation” value is 82.1%, the “AREA-MAJOR PEAK/2.0 HR” value is listed as 0.1777 and the “AREA-MAJOR PEAK/0.0 MIN” value is 0.2164.
Consider “5' X CCT CGA CCA CCG CAT X (A) 3' (antisense CCTCGACCACCGCAT; triethylene glycol unit at both ends, extra 3' A, further chemistry not given here) [Ref. Code 9, TEG-terminated anti-RAS oncogene DNA, X is TEG]”, for which, in series [1], the “% DEGRADATION MAJOR PEAK” value stood at 13.0%, the “% of oligomer remained after incubation” value is 87.0%, the “AREA-MAJOR PEAK/2.0 HR” value is reported as 0.3258 and the “AREA-MAJOR PEAK/0.0 MIN” value is recorded as 0.3744.
For the substance “5' X GGA GCT GGT GGC GTA X (A) 3' (antisense GGAGCTGGTGGCGTA; triethylene glycol unit at both ends, extra 3' A, further chemistry not given here) [Ref. Code 7, TEG-terminated anti-RAS oncogene DNA, X is TEG]”, in series [1], the “% DEGRADATION MAJOR PEAK” value is reported as 0.0%, the “degradation / resistance to hydrolysis by FCS-associated exonucleases (in words)” value is reported as “no degradation; also recorded: completely resistant to hydrolysis”, the “AREA-MAJOR PEAK/2.0 HR” value is on record as 0.3663 and the “AREA-MAJOR PEAK/0.0 MIN” value is on record as 0.2325.
For the substance “5' AAC GTT GAG GGG CAT 3' [reference compound]”, the “% CONTROL S-PHASE” value in the series on PHA stimulated human PBL (30 μM) came out at 75 ± 6%; in the series on PHA stimulated human PBL (60 μM), 9 ± 10%. Besides, in series [2], the “% REDUCTION C-MYC PROTEIN” value was found to be 61.0 ± 2.6%.
As for “5' CCT CGA CCA CCG CAT 3' (DNA CCTCGACCACCGCAT; DNA, backbone and methylation of C not given here) [Ref. Code 11, unmodified oligodeoxynucleotide made by standard solid phase phosphoramidite procedures, comparison, reference compound]”, in series [1], the “% DEGRADATION MAJOR PEAK” value came out at 75.3%, the “% of oligomer remained after incubation” value came to 24.7%, the “AREA-MAJOR PEAK/2.0 HR” value came to 0.3177 and the “AREA-MAJOR PEAK/0.0 MIN” value is recorded as 1.2861.
For “5' XX CCT CGA CCA CCG CAT XX (A) 3' (antisense CCTCGACCACCGCAT; two TEG at each end, 3' A, chemistry not fully specified) [Ref. Code 10, TEG-terminated anti-RAS oncogene DNA, X is TEG]”, in series [1], the “% DEGRADATION MAJOR PEAK” value turned out to be 0.0%, the “degradation / resistance to hydrolysis by FCS-associated exonucleases (in words)” value is “no degradation; also recorded: completely resistant to hydrolysis”, the “AREA-MAJOR PEAK/2.0 HR” value is on record as 0.3697 and the “AREA-MAJOR PEAK/0.0 MIN” value is on record as 0.3642.

The values above are taken from US5677439A, “Oligonucleotide analogues containing phosphate diester linkage substitutes, compositions thereof, and precursor dinucleotide analogues” (Sanofi, priority 1995, dated 1997).
